What was measured:
[1] = test system: Human breast cancer cell (MCF-7); assay: Tumor cell proliferation inhibition (CellTiter-Meiluncell luminescent cell viability assay); conditions: MCF7, 96 h; for inhibition at 0.01 µM: read-out: Inhibition Rate at 10 nM (%); for inhibition at 0.5 µM: read-out: Inhibition Rate at 500 nM (%)
Description: (§1) The tumor cells used herein were cultured in a cell culture medium listed in table 2 at 37°C in an incubator with 5% CO2. Prior to experimentation, all cell lines used were correctly identified by STR profiling, and tested negative for mycoplasma contamination using a mycoplasma detection kit through routine screenings.
(§2) The IC50 values of the compounds of the present disclosure (including the compounds in Table 1 and Examples) were determined using the CellTiter-Meiluncell Luminescent Cell Viability Assay Kit from Dalian Meilun Biotech Co., Ltd. The detailed procedure is as follows: Tumor cells were seeded in 96-well cell culture plates at the densities specified in Table 3. On the following day, the test compounds of the present disclosure were subjected to serial dilution. The dilution can be performed according to one of the following two methods: • (1) The first dilution method: The test compounds of the present disclosure (including the compounds in Table 1 and Examples) were subjected to 5-fold serial dilutions starting from a highest concentration of 2000 µM, resulting in a total of 9 concentrations from high to low (2000, 400, 80, 16, 3.2, 0.64, 0.128, 0.0256, 0.00512 µM). Subsequently, 0.5 µL of the test compound dilution was transferred into the 96-well plate containing the cells, with each well containing 100 µL of cell culture medium. […] Into the 96-well plate, the diluted test compounds and corresponding detection reagents were added, resulting in final test compound concentrations of 500 nM and 10 nM, respectively. The experimental procedure is described below using the diluted 2 µM test compound as an example.
(§3) 0.5 µL of the aforementioned diluted compound of the present disclosure (including the compounds in Table 1 and Examples) was added to the seeded cells in 100 µL of medium, yielding a final test compound concentration of 10 nM. After the cells were treated with the compounds of the present disclosure for a specified period, the cell viability assay reagent was added to the culture medium according to the kit's instructions to determine cell viability. […] All controls were treated using the same procedure as the compounds of the present disclosure. The growth inhibition curves for the compounds of the present disclosure were plotted using Prism GraphPad software, and the IC50 values were calculated therefrom.

[2] = biological target: T1, human Cereblon WT GST-tagged protein (Homo sapiens, UniProt Q96SW2); assay: CRBN-binding affinity, HTRF (CEREBLON BINDING kit); conditions: for inhibition at 0.5 µM: read-out: Inhibition Rate at 0.5 µM (%); for inhibition at 2 µM: read-out: Inhibition Rate at 2 µM (%)
T1 construct: purchased CISBIO 64BDCRBNPEH
T1 sequence (Q96SW2 whole entry): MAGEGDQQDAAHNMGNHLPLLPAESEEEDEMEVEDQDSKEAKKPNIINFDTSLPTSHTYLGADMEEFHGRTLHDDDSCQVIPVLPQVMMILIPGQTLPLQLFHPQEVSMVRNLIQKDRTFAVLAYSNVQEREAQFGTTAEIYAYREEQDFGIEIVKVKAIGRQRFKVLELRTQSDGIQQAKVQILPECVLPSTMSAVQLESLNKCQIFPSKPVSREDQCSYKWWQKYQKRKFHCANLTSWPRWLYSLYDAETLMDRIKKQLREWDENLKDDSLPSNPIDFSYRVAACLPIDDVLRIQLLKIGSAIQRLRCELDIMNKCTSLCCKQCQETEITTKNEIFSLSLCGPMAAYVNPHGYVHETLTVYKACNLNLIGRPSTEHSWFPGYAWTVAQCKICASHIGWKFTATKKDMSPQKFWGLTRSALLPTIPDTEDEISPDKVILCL

[3] = test system: Human multiple myeloma cell (MM.1S); assay: Tumor cell proliferation inhibition (CellTiter-Meiluncell luminescent cell viability assay); conditions: Homo sapiens, MM1.S, 96 h; for inhibition at 0.01 µM: read-out: Inhibition Rate at 10 nM (%); for inhibition at 0.5 µM: read-out: Inhibition Rate at 500 nM (%)
Description: as §1, §2, §3

GSPT1 = assay: Western blot, degradation of substrate protein in hPBMCs; type: cell-based, Human
WEE1 = biological target: T2, WEE1 (Homo sapiens, UniProt P30291+Q96SW2); assay: as above; type: cell-based
T2 construct: effects of the compounds of the present disclosure on the expression of target proteins in cells; endogenous in cells; host or cells: human PBMCs (Milecell Biotechnologies)
T2 sequence (P30291 whole entry): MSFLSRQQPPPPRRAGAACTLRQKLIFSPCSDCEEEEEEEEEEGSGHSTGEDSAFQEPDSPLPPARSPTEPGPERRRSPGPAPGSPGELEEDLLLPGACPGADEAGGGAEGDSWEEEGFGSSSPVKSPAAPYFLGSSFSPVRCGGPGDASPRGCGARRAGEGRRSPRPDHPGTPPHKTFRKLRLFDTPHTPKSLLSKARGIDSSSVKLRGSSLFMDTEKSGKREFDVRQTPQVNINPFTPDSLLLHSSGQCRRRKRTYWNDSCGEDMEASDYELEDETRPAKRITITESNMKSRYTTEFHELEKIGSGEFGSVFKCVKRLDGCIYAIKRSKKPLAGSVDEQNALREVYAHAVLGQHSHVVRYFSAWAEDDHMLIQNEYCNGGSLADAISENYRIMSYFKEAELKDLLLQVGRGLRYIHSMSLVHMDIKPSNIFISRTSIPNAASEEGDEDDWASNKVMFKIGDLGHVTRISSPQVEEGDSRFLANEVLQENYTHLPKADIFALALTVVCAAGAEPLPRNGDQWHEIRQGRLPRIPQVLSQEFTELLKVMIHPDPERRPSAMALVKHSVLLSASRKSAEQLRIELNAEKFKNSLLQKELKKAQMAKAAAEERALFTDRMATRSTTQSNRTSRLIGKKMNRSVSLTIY
T2 sequence (Q96SW2 whole entry): as the sequence (Q96SW2 whole entry) above
T2 sequence (Q16531 whole entry partner): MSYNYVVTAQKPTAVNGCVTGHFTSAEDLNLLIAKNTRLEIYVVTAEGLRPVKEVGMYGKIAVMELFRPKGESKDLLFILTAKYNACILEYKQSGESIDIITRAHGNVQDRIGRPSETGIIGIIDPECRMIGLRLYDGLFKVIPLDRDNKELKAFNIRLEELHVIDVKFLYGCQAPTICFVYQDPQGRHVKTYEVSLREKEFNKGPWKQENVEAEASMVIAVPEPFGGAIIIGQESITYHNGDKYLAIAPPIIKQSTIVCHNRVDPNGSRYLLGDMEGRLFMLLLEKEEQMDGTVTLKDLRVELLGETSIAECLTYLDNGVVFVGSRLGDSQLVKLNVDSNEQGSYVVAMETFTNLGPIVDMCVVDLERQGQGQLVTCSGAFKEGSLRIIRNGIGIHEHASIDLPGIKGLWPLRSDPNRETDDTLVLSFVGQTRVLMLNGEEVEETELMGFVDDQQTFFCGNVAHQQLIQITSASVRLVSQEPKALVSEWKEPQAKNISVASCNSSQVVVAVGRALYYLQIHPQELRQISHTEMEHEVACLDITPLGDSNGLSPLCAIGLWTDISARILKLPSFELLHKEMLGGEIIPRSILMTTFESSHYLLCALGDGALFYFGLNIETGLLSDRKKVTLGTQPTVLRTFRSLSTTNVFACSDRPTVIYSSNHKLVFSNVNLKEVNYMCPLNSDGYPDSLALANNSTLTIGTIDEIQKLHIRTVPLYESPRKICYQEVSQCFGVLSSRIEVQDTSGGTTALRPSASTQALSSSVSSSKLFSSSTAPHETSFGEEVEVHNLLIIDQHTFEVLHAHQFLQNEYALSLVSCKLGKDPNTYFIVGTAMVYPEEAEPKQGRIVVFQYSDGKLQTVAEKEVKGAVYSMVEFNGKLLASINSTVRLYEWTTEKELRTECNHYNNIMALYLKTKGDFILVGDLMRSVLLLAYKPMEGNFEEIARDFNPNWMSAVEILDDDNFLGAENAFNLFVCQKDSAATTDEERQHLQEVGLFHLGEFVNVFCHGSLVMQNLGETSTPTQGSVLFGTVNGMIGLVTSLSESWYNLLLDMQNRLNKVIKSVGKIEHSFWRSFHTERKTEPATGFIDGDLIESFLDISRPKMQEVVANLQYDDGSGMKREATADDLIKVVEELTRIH

IKZF2 = biological target: T3, IKZF2 (Homo sapiens, UniProt Q96SW2+Q9UKS7); assay: as above; type: cell-based
T3 construct: effects of the compounds of the present disclosure on the expression of target proteins in cells; endogenous in cells; host or cells: human PBMCs (Milecell Biotechnologies)
T3 sequence (Q9UKS7 whole entry): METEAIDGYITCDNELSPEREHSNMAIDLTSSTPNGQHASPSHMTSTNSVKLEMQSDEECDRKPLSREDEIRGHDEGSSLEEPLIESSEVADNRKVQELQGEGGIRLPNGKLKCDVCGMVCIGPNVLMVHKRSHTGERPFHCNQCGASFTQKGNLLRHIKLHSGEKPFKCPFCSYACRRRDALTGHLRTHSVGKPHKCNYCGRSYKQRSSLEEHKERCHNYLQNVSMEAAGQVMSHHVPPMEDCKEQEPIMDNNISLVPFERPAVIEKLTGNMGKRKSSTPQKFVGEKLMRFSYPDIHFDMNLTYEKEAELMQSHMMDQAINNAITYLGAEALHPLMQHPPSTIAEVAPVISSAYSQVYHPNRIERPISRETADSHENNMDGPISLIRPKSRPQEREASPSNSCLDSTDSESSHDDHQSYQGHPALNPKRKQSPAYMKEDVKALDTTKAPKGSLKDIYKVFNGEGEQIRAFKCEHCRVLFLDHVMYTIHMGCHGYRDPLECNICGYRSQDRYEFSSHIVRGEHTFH
T3 sequence (Q96SW2 whole entry): as the sequence (Q96SW2 whole entry) above
T3 sequence (Q16531 whole entry partner): as the sequence (Q16531 whole entry partner) above

IKZF1 = biological target: T4, IKZF1 (Homo sapiens, UniProt Q13422+Q96SW2); assay: as above; type: cell-based
T4 construct: effects of the compounds of the present disclosure on the expression of target proteins in cells; endogenous in cells; host or cells: human PBMCs (Milecell Biotechnologies)
T4 sequence (Q13422 whole entry): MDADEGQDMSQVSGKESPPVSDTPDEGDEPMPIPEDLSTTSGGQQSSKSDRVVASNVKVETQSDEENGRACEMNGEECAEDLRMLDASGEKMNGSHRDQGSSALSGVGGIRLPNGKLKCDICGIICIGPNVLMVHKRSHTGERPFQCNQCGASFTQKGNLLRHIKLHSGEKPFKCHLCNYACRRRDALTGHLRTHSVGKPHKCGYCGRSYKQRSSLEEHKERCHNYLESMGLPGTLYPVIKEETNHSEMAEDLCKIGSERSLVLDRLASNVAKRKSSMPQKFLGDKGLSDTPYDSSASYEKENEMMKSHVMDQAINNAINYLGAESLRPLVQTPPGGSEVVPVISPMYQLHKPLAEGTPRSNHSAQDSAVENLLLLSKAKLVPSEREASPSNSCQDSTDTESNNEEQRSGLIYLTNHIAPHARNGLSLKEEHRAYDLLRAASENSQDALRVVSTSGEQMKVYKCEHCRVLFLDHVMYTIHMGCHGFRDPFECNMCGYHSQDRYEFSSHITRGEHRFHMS
T4 sequence (Q96SW2 whole entry): as the sequence (Q96SW2 whole entry) above
T4 sequence (Q16531 whole entry partner): as the sequence (Q16531 whole entry partner) above

CK1α = biological target: T5, CK1α (Homo sapiens, UniProt P48729+Q96SW2); assay: as above; type: cell-based
T5 construct: effects of the compounds of the present disclosure on the expression of target proteins in cells; endogenous in cells; host or cells: human PBMCs (Milecell Biotechnologies)
T5 sequence (P48729 whole entry): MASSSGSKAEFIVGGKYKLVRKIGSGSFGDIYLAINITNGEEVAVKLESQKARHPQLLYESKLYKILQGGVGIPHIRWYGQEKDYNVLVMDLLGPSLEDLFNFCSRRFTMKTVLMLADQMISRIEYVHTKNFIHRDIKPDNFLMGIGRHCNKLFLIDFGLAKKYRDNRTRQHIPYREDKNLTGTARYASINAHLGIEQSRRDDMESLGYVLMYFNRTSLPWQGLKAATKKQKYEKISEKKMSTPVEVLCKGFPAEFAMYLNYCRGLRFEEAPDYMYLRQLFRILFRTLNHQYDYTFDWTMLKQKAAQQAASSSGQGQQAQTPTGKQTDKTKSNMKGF
T5 sequence (Q96SW2 whole entry): as the sequence (Q96SW2 whole entry) above
T5 sequence (Q16531 whole entry partner): as the sequence (Q16531 whole entry partner) above

IKZF3 = biological target: T6, IKZF3 (Homo sapiens, UniProt Q96SW2+Q9UKT9); assay: as above; type: cell-based
T6 construct: effects of the compounds of the present disclosure on the expression of target proteins in cells; endogenous in cells; host or cells: human PBMCs (Milecell Biotechnologies)
T6 sequence (Q9UKT9 whole entry): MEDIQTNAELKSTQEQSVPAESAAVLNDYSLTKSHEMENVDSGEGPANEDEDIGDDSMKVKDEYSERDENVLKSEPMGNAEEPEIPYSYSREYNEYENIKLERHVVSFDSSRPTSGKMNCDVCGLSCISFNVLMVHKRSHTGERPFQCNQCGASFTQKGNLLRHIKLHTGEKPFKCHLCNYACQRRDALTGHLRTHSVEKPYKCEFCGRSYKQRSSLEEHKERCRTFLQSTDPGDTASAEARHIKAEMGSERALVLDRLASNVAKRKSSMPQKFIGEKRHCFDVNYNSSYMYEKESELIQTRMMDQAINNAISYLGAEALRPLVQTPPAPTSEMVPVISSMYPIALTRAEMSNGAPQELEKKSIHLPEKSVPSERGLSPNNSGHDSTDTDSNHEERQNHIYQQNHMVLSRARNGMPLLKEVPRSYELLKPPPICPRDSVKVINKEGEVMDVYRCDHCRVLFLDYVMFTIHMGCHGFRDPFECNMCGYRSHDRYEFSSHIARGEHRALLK
T6 sequence (Q96SW2 whole entry): as the sequence (Q96SW2 whole entry) above
T6 sequence (Q16531 whole entry partner): as the sequence (Q16531 whole entry partner) above

[4] = test system: Human myeloid monocytic leukemia cell (MV-4-11); assay: Tumor cell proliferation inhibition (CellTiter-Meiluncell luminescent cell viability assay); conditions: MV4-11, 96 h
[5] = 24 hours treatment, compounds at 50 nM and 500 nM (concentration behind the class not stated)
[6] = Western blot, 24 hours of compound treatment, compounds tested at 50 nM and 500 nM (concentration for the table not stated)

SMILES: O=C1CCC(N2Cc3c(CN4CCN(c5ncnc6scc(-c7ccccc7)c56)CC4)cccc3C2=S)C(=O)N1 (stereo not shown) [GT-08920, 3-(4-((4-(5-phenylthieno[2,3-d]pyrimidin-4-yl)piperazin-1-yl)methyl)-1-thioxoisoindolin-2-yl)piperidine-2,6-dione]
- inhibition at 0.01 µM [1]: 50 to 60%
- inhibition at 0.5 µM [1]: 30 to 40%
- inhibition at 0.5 µM [2]: 40 to 53%
- inhibition at 2 µM [2]: 80 to 100%
- inhibition at 0.01 µM [3]: 30 to 40%
- inhibition at 0.5 µM [3]: 40 to 50%

SMILES: O=C1CCC(N2Cc3c(CN4CC(C5CCOc6cc(F)ccc65)C4)cccc3C2=S)C(=O)N1 (stereo not shown) [GT-08859, 3-(4-((3-(7-fluorochroman-4-yl)azetidin-1-yl)methyl)-1-thioxoisoindolin-2-yl)piperidine-2,6-dione]
- inhibition at 0.01 µM [1]: 50 to 60%
- inhibition at 0.5 µM [1]: 40 to 50%
- inhibition at 0.5 µM [2]: 53 to 60%
- inhibition at 2 µM [2]: 80 to 100%
- inhibition at 0.01 µM [3]: 30 to 40%
- inhibition at 0.5 µM [3]: 50 to 60%
- GSPT1 substrate protein remaining % (GSPT1; [5]): A (0% ≤ substrate protein remaining % ≤ 80%)
- Wee1 substrate protein remaining % (WEE1; [5]): B (80%< substrate protein remaining %≤ 100%)
- IKZF2 substrate protein remaining % (IKZF2; [5]): B (80%< substrate protein remaining %≤ 100%)
- IKZF 1 substrate protein remaining % (IKZF1; [5]): B (80%< substrate protein remaining %≤ 100%)
- CK1α substrate protein remaining % (CK1α; [5]): B (80%< substrate protein remaining %≤ 100%)
- IKZF3 substrate protein remaining % (IKZF3; [5]): B (80%< substrate protein remaining %≤ 100%)

SMILES: O=C1CCC(N2Cc3c(CN4CCC(N5C(=O)COc6cc(F)ccc65)CC4)cccc3C2=S)C(=O)N1 (stereo not shown) [GT-08853, 3-(4-((4-(7-fluoro-3-oxo-2,3-dihydro-4H-benzo[b][1,4]oxazin-4-yl)piperidin-1-yl)methyl)-1-thioxoisoindolin-2-yl)piperidine-2,6-dione]
- inhibition at 0.01 µM [1]: 5 to 10%
- inhibition at 0.5 µM [1]: 40 to 50%
- inhibition at 0.5 µM [2]: 60 to 80%
- inhibition at 2 µM [2]: 80 to 100%
- inhibition at 0.01 µM [3]: 30 to 40%
- inhibition at 0.5 µM [3]: 40 to 50%
- GSPT1 substrate protein remaining % (GSPT1; [5]): B (80%< substrate protein remaining %≤ 100%)
- Wee1 substrate protein remaining % (WEE1; [5]): B (80%< substrate protein remaining %≤ 100%)
- IKZF2 substrate protein remaining % (IKZF2; [5]): B (80%< substrate protein remaining %≤ 100%)
- IKZF 1 substrate protein remaining % (IKZF1; [5]): B (80%< substrate protein remaining %≤ 100%)
- CK1α substrate protein remaining % (CK1α; [5]): B (80%< substrate protein remaining %≤ 100%)
- IKZF3 substrate protein remaining % (IKZF3; [5]): A (0% ≤ substrate protein remaining % ≤ 80%)

SMILES: O=C1CCC(N2Cc3c(CN4CCC(N5CCc6cc(F)ccc65)CC4)cccc3C2=S)C(=O)N1 (stereo not shown) [GT-08845, 3-(4-((4-(5-fluoroindolin-1-yl)piperidin-1-yl)methyl)-1-thioxoisoindolin-2-yl)piperidine-2,6-dione]
- inhibition at 0.01 µM [1]: 50 to 60%
- inhibition at 0.5 µM [1]: 60 to 70%
- inhibition at 0.5 µM [2]: 40 to 53%
- inhibition at 2 µM [2]: 80 to 100%
- inhibition at 0.01 µM [3]: 20 to 30%
- inhibition at 0.5 µM [3]: 40 to 50%
- GSPT1 substrate protein remaining % (GSPT1; [6]): A (0% ≤ substrate protein remaining % ≤ 80%)
- Wee1 substrate protein remaining % (WEE1; [6]): A (0% ≤ substrate protein remaining % ≤ 80%)
- IKZF2 substrate protein remaining % (IKZF2; [6]): B (80%< substrate protein remaining %≤ 100%)
- IKZF 1 substrate protein remaining % (IKZF1; [6]): B (80%< substrate protein remaining %≤ 100%)
- CK1α substrate protein remaining % (CK1α; [6]): B (80%< substrate protein remaining %≤ 100%)
- IKZF3 substrate protein remaining % (IKZF3; [6]): B (80%< substrate protein remaining %≤ 100%)

SMILES: O=C1CCC(N2Cc3cc(CN4CCC(N5CCCc6cc(F)ccc65)CC4)ccc3C2=S)C(=O)N1 (stereo not shown) [GT-09271, 3-(5-((4-(6-fluoro-3,4-dihydroquinolin-1(2H)-yl)piperidin-1-yl)methyl)-1-thioxoisoindolin-2-yl)piperidine-2,6-dione]
- inhibition at 0.01 µM [1]: 20 to 30%
- inhibition at 0.5 µM [1]: 40 to 50%
- inhibition at 0.5 µM [2]: 60 to 80%
- inhibition at 2 µM [2]: 80 to 100%
- inhibition at 0.01 µM ([4]; read-out: Inhibition Rate at 10 nM (%)): 40 to 60%
- inhibition at 0.5 µM ([4]; read-out: Inhibition Rate at 500 nM (%)): 40 to 60%

SMILES: O=C1CCC(N2Cc3c(CN4CC(n5cnc6cc(F)ccc65)C4)cccc3C2=S)C(=O)N1 (stereo not shown) [GT-08861, 3-(4-((3-(5-fluoro-1H-benzo[d]imidazol-1-yl)azetidin-1-yl)methyl)-1-thioxoisoindolin-2-yl)piperidine-2,6-dione]
- inhibition at 0.01 µM [1]: 30 to 40%
- inhibition at 0.5 µM [1]: 40 to 50%
- inhibition at 0.5 µM [2]: 40 to 53%
- inhibition at 2 µM [2]: 80 to 100%
- GSPT1 substrate protein remaining % (GSPT1; [5]): B (80%< substrate protein remaining %≤ 100%)
- Wee1 substrate protein remaining % (WEE1; [5]): A (0% ≤ substrate protein remaining % ≤ 80%)
- IKZF2 substrate protein remaining % (IKZF2; [5]): B (80%< substrate protein remaining %≤ 100%)
- IKZF 1 substrate protein remaining % (IKZF1; [5]): B (80%< substrate protein remaining %≤ 100%)
- CK1α substrate protein remaining % (CK1α; [5]): B (80%< substrate protein remaining %≤ 100%)
- IKZF3 substrate protein remaining % (IKZF3; [5]): B (80%< substrate protein remaining %≤ 100%)

SMILES: Cc1nc(N2CCN(Cc3cccc4c3CN(C3CCC(=O)NC3=O)C4=S)CC2)c2c3c(sc2n1)CCCC3 (stereo not shown) [GT-08923, 3-(4-((4-(2-methyl-5,6,7,8-tetrahydrobenzo[4,5]thieno[2,3-d]pyrimidin-4-yl)piperazin-1-yl)methyl)-1-thioxoisoindolin-2-yl)piperidine-2,6-dione]
- inhibition at 0.01 µM [1]: 70 to 80%
- inhibition at 0.5 µM [1]: 70 to 80%
- inhibition at 0.5 µM [2]: 30 to 40%
- inhibition at 2 µM [2]: 80 to 100%
- GSPT1 substrate protein remaining % (GSPT1; [5]): B (80%< substrate protein remaining %≤ 100%)
- Wee1 substrate protein remaining % (WEE1; [5]): A (0% ≤ substrate protein remaining % ≤ 80%)
- IKZF2 substrate protein remaining % (IKZF2; [5]): B (80%< substrate protein remaining %≤ 100%)
- IKZF 1 substrate protein remaining % (IKZF1; [5]): B (80%< substrate protein remaining %≤ 100%)
- CK1α substrate protein remaining % (CK1α; [5]): B (80%< substrate protein remaining %≤ 100%)
- IKZF3 substrate protein remaining % (IKZF3; [5]): B (80%< substrate protein remaining %≤ 100%)

SMILES: O=C1CCC(N2Cc3c(CN4CCN(c5ncnc6sc7c(c56)CCC7)CC4)cccc3C2=S)C(=O)N1 (stereo not shown) [GT-08925, 3-(4-((4-(6,7-dihydro-5H-cyclopenta[4,5]thieno[2,3-d]pyrimidin-4-yl)piperazin-1-yl)methyl)-1-thioxoisoindolin-2-yl)piperidine-2,6-dione]
- inhibition at 0.01 µM [1]: 60 to 70%
- inhibition at 0.5 µM [1]: 60 to 70%
- inhibition at 0.5 µM [2]: 60 to 80%
- inhibition at 2 µM [2]: 80 to 100%
- GSPT1 substrate protein remaining % (GSPT1; [5]): B (80%< substrate protein remaining %≤ 100%)
- Wee1 substrate protein remaining % (WEE1; [5]): A (0% ≤ substrate protein remaining % ≤ 80%)
- IKZF2 substrate protein remaining % (IKZF2; [5]): A (0% ≤ substrate protein remaining % ≤ 80%)
- IKZF 1 substrate protein remaining % (IKZF1; [5]): B (80%< substrate protein remaining %≤ 100%)
- CK1α substrate protein remaining % (CK1α; [5]): B (80%< substrate protein remaining %≤ 100%)
- IKZF3 substrate protein remaining % (IKZF3; [5]): A (0% ≤ substrate protein remaining % ≤ 80%)

SMILES: O=C1CCC(N2Cc3c(CN4CCC(n5c(=O)[nH]c6cc(F)ccc65)CC4)cccc3C2=S)C(=O)N1 (stereo not shown) [GT-08843, 3-(4-((4-(5-fluoro-2-oxo-2,3-dihydro-1H-benzo[d]imidazol-1-yl)piperidin-1-yl)methyl)-1-thioxoisoindolin-2-yl)piperidine-2,6-dione]
- inhibition at 0.01 µM [1]: 60 to 70%
- inhibition at 0.5 µM [1]: 60 to 70%
- inhibition at 0.5 µM [2]: 60 to 80%
- inhibition at 2 µM [2]: 80 to 100%
- GSPT1 substrate protein remaining % (GSPT1; [6]): B (80%< substrate protein remaining %≤ 100%)
- Wee1 substrate protein remaining % (WEE1; [6]): A (0% ≤ substrate protein remaining % ≤ 80%)
- IKZF2 substrate protein remaining % (IKZF2; [6]): B (80%< substrate protein remaining %≤ 100%)
- IKZF 1 substrate protein remaining % (IKZF1; [6]): B (80%< substrate protein remaining %≤ 100%)
- CK1α substrate protein remaining % (CK1α; [6]): B (80%< substrate protein remaining %≤ 100%)
- IKZF3 substrate protein remaining % (IKZF3; [6]): B (80%< substrate protein remaining %≤ 100%)
